# Laboratory results from patent publication US9365522B2, “Pyrazole amide derivative” (AMGEN INC., priority 2015, dated 2016).
# Molecular target: T1, ligand binding domain of human ROR gamma (Homo sapiens, UniProt P51449)
# T1 construct: NM_001001523; expressed in transfected cells; host or cells: HEK293T
# T1 sequence (P51449 247-497 isoform P51449-2): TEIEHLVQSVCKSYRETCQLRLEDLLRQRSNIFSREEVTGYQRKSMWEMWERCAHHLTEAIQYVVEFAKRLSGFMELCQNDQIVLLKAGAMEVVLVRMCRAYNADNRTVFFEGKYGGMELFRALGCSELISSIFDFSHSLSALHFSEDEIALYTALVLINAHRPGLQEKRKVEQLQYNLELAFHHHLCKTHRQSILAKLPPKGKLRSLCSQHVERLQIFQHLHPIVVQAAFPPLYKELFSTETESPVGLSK
# Assay: ROR gamma reporter gene assay (GAL4-RORγ LBD luciferase, Dual-Glo)
# Assay type: cell-based
# Details: HEK293T cells transfected with pM-ROR gamma, 8 concentrations 3.5 nM to 10.5 μM, 24 h incubation; read-out: result (pIC50, inhibition of RORγ transcriptional activity) (converted)
# Procedure, shortened: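 Transient GAL4-RORγ LBD (aa 247-497) / 5×UAS-luc / pRL-CMV cotransfection in HEK293T, charcoal-stripped 10% FBS. 8-pt dose, 3.5 nM–10.5 μM, 0.075% DMSO final. 24 h, 37 °C, 5% CO2. Dual-Glo firefly/renilla readout; pIC50 from curve fit.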
row,SMILES,IC50 [pM]
1,"O=C1CC[C@@H](CN(CC(=O)c2c(Cl)cncc2Cl)C(=O)c2cnn([C@H]3CC[C@H](C(=O)O)CC3)c2C(F)(F)F)N1 [Example 157, trans-4-(4-((2-(3,5-dichloropyridin-4-yl)-2-oxoethyl)-(((2S)-5-oxopyrrolidin-2-yl)methyl)carbamoyl)-5-(trifluoromethyl)pyrazol-1-yl)cyclohexane-1-carboxylic acid]",> 1e+07
2,"O=C1CC[C@H](CN(CC(=O)c2c(Cl)cncc2Cl)C(=O)c2cnn([C@H]3CC[C@H](C(=O)O)CC3)c2C(F)(F)F)N1 [Example 158, trans-4-(4-((2-(3,5-dichloropyridin-4-yl)-2-oxoethyl)-(((2R)-5-oxopyrrolidin-2-yl)methyl)carbamoyl)-5-(trifluoromethyl)pyrazol-1-yl)cyclohexane-1-carboxylic acid]",> 1e+07
3,"O=C(CN(Cc1cc(F)cc(F)c1)C(=O)c1cnn([C@H]2CC[C@H](C(=O)O)CC2)c1CO)c1c(Cl)cncc1Cl [Example 159, trans-4-(4-((2-(3,5-dichloropyridin-4-yl)-2-oxoethyl)-((3,5-difluorophenyl)methyl)carbamoyl)-5-(hydroxymethyl)pyrazol-1-yl)cyclohexane-1-carboxylic acid]",> 1e+07
4,"CC12CCC(CN(CC(=O)c3c(Cl)cncc3Cl)C(=O)c3cnn([C@H]4CC[C@H](C(=O)O)CC4)c3C(F)(F)F)(CC1)O2 [Example 160, trans-4-(4-((2-(3,5-dichloropyridin-4-yl)-2-oxoethyl)-((1-methyl-7-oxabicyclo[2.2.1]heptan-4-yl)methyl)carbamoyl)-5-(trifluoromethyl)pyrazol-1-yl)cyclohexane-1-carboxylic acid]",24500
5,"O=C(CN(C(=O)c1cnn([C@H]2CC[C@H](C(=O)O)CC2)c1C(F)(F)F)[C@H]1C[C@@H]1c1ccccc1)c1c(Cl)cncc1Cl [Example 161, trans-4-(4-((2-(3,5-dichloropyridin-4-yl)-2-oxoethyl)-((1S,2R)-2-phenylcyclopropyl)carbamoyl)-5-(trifluoromethyl)pyrazol-1-yl)cyclohexane-1-carboxylic acid]",2.19e+06
6,"CC(C)c1c(C(=O)N(CC(=O)c2c(Cl)cncc2Cl)Cc2cc(F)cc(F)c2)cnn1[C@H]1CC[C@H](C(=O)O)CC1 [Example 162, trans-4-(4-((2-(3,5-dichloropyridin-4-yl)-2-oxoethyl)-((3,5-difluorophenyl)methyl)carbamoyl)-5-propan-2-ylpyrazol-1-yl)cyclohexane-1-carboxylic acid]",1.02e+06
7,"NCc1c(C(=O)N(CC(=O)c2c(Cl)cncc2Cl)Cc2cc(F)cc(F)c2)cnn1[C@H]1CC[C@H](C(=O)O)CC1 [Example 163, trans-4-(5-(aminomethyl)-4-((2-(3,5-dichloropyridin-4-yl)-2-oxoethyl)-((3,5-difluorophenyl)methyl)carbamoyl)pyrazol-1-yl)cyclohexane-1-carboxylic acid]",> 1e+07
8,"Cc1c(C(=O)N(CC(=O)c2c(Cl)cncc2Cl)Cc2cc(F)cc(F)c2)cnn1[C@H]1CC[C@H](C(=O)O)CC1 [Example 164, trans-4-(4-((2-(3,5-dichloropyridin-4-yl)-2-oxoethyl)-((3,5-difluorophenyl)methyl)carbamoyl)-5-methylpyrazol-1-yl)cyclohexane-1-carboxylic acid]",1.17e+06
9,"O=C(CN(Cc1nc(Cl)cs1)C(=O)c1cnn([C@H]2CC[C@H](C(=O)O)CC2)c1C(F)(F)F)c1c(Cl)cncc1Cl [Example 165, trans-4-(4-((4-chloro-1,3-thiazol-2-yl)methyl-(2-(3,5-dichloropyridin-4-yl)-2-oxoethyl)carbamoyl)-5-(trifluoromethyl)pyrazol-1-yl)cyclohexane-1-carboxylic acid]",1.17e+06
10,"O=C(CN(Cc1ccc(F)cc1)C(=O)c1cnn(C23CCC(C(=O)O)(CC2)CC3)c1C(F)(F)F)c1c(Cl)cncc1Cl [Example 166, 4-(4-((2-(3,5-dichloropyridin-4-yl)-2-oxoethyl)-((4-fluorophenyl)methyl)carbamoyl)-5-(trifluoromethyl)pyrazol-1-yl)bicyclo[2.2.2]octane-1-carboxylic acid]",15500
11,"O=C(CN(Cc1csc(Cl)n1)C(=O)c1cnn([C@H]2CC[C@H](C(=O)O)CC2)c1C(F)(F)F)c1c(Cl)cncc1Cl [Example 167, trans-4-(4-((2-chloro-1,3-thiazol-4-yl)methyl-(2-(3,5-dichloropyridin-4-yl)-2-oxoethyl)carbamoyl)-5-(trifluoromethyl)pyrazol-1-yl)cyclohexane-1-carboxylic acid]",331000
12,"O=C(CN(Cc1ncc(Cl)s1)C(=O)c1cnn([C@H]2CC[C@H](C(=O)O)CC2)c1C(F)(F)F)c1c(Cl)cncc1Cl [Example 168, trans-4-(4-((5-chloro-1,3-thiazol-2-yl)methyl-(2-(3,5-dichloropyridin-4-yl)-2-oxoethyl)carbamoyl)-5-(trifluoromethyl)pyrazol-1-yl)cyclohexane-1-carboxylic acid]",148000
13,"CC1(C)CCC(N(CC(=O)c2c(Cl)cncc2Cl)C(=O)c2cnn([C@H]3CC[C@H](C(=O)O)CC3)c2C(F)(F)F)CC1 [Example 169, trans-4-(4-((2-(3,5-dichloropyridin-4-yl)-2-oxoethyl)-(4,4-dimethylcyclohexyl)carbamoyl)-5-(trifluoromethyl)pyrazol-1-yl)cyclohexane-1-carboxylic acid]",40700
14,"N#Cc1cccc(CN(CC(=O)c2c(Cl)cncc2Cl)C(=O)c2cnn([C@H]3CC[C@H](C(=O)O)CC3)c2C(F)(F)F)c1 [Example 170, trans-4-(4-((3-cyanophenyl)methyl-(2-(3,5-dichloropyridin-4-yl)-2-oxoethyl)carbamoyl)-5-(trifluoromethyl)pyrazol-1-yl)cyclohexane-1-carboxylic acid]",178000
15,"N#Cc1ccc(CN(CC(=O)c2c(Cl)cncc2Cl)C(=O)c2cnn([C@H]3CC[C@H](C(=O)O)CC3)c2C(F)(F)F)cc1 [Example 171, trans-4-(4-((4-cyanophenyl)methyl-(2-(3,5-dichloropyridin-4-yl)-2-oxoethyl)carbamoyl)-5-(trifluoromethyl)pyrazol-1-yl)cyclohexane-1-carboxylic acid]",166000
16,"CC(=O)N1CC(N(CC(=O)c2c(Cl)cncc2Cl)C(=O)c2cnn([C@H]3CC[C@H](C(=O)O)CC3)c2C(F)(F)F)C1 [Example 172, trans-4-(4-((1-acetylazetidin-3-yl)-(2-(3,5-dichloropyridin-4-yl)-2-oxoethyl)carbamoyl)-5-(trifluoromethyl)pyrazol-1-yl)cyclohexane-1-carboxylic acid]",> 1e+07
17,"CC(C)(C)C(=O)N1CC(N(CC(=O)c2c(Cl)cncc2Cl)C(=O)c2cnn([C@H]3CC[C@H](C(=O)O)CC3)c2C(F)(F)F)C1 [Example 173, trans-4-(4-((2-(3,5-dichloropyridin-4-yl)-2-oxoethyl)-(1-(2,2-dimethylpropanoyl)azetidin-3-yl)carbamoyl)-5-(trifluoromethyl)pyrazol-1-yl)cyclohexane-1-carboxylic acid]",> 1e+07
18,"O=C(CN(C(=O)c1cnn([C@H]2CC[C@H](C(=O)O)CC2)c1C(F)(F)F)C1CCCCC1)c1c(Cl)cncc1Cl [Example 174, trans-4-(4-(cyclohexyl-(2-(3,5-dichloropyridin-4-yl)-2-oxoethyl)carbamoyl)-5-(trifluoromethyl)pyrazol-1-yl)cyclohexane-1-carboxylic acid]",661000
19,"O=C(CN(C(=O)c1cnn([C@H]2CC[C@H](C(=O)O)CC2)c1C(F)(F)F)C1CCC(F)(F)CC1)c1c(Cl)cncc1Cl [Example 175, trans-4-(4-((2-(3,5-dichloropyridin-4-yl)-2-oxoethyl)-(4,4-difluorocyclohexyl)carbamoyl)-5-(trifluoromethyl)pyrazol-1-yl)cyclohexane-1-carboxylic acid]",603000
20,"CC(C)(C)O[C@H]1C[C@H](N(CC(=O)c2c(Cl)cncc2Cl)C(=O)c2cnn([C@H]3CC[C@H](C(=O)O)CC3)c2C(F)(F)F)C1 [Example 176, trans-4-(4-((2-(3,5-dichloropyridin-4-yl)-2-oxoethyl)-(3-((2-methylpropan-2-yl)oxy)cyclobutyl)carbamoyl)-5-(trifluoromethyl)pyrazol-1-yl)cyclohexane-1-carboxylic acid]",2.57e+06
21,"O=C(CN(Cc1ccc(F)cc1)C(=O)c1cnn(C23CCC(C(=O)O)(CC2)C3)c1C(F)(F)F)c1c(Cl)cncc1Cl [Example 177, 4-(4-((2-(3,5-dichloropyridin-4-yl)-2-oxoethyl)-((4-fluorophenyl)methyl)carbamoyl)-5-(trifluoromethyl)pyrazol-1-yl)bicyclo[2.2.1]heptane-1-carboxylic acid]",141000
22,"C[C@]1(C(=O)O)CC[C@H](n2ncc(C(=O)N(CC(=O)c3c(Cl)cncc3Cl)Cc3cc(F)cc(F)c3)c2C(F)F)CC1 [Example 178, trans-4-(4-((2-(3,5-dichloropyridin-4-yl)-2-oxoethyl)-((3,5-difluorophenyl)methyl)carbamoyl)-5-(difluoromethyl)pyrazol-1-yl)-1-methylcyclohexane-1-carboxylic acid]",4.37e+06
